Columns and labels:
MCF7 = test: In vitro cytotoxic activity, MTT assay, MCF7; type: cell-based; conditions: Homo sapiens, 72 hours
Excerpt: One of the parameters used, as the basis for colorimetric assays is the metabolic activity of viable cells. For example, a microtiter assay, which uses the tetrazolium salt MTT, is now widely used to quantitate cell proliferation and cytotoxicity. For instance, this assay is used in drug screening programs and in chemosensitivity testing. Because only metabolically active cells cleave tetrazolium salts, these assays detect viable cells exclusively. In the case of MTT assay, yellow soluble tetrazolium salt is reduced to coloured water-insoluble formazan salt. After it is solubilized, the formazan formed can easily and rapidly be quantified in a conventional ELISA plate reader at 570 nm (maximum absorbance). The quantity of reduced formazan corresponds to number of vital cells in the culture.
Human T-lymphoblastic leukemia cell line CEM; promyelocytic HL-60 and monocytic U937 leukemias; breast carcinoma cell lines MCF-7, BT549, MDA-MB-231; glioblastoma U87MG cells; cervical carcinoma cells HELA; sarcoma cells U2OS and Saos2; hepatocellular carcinoma HepG2; mouse immortalized bone marrow macrophages B2.4 and B10A.4; P388D1 and L1210 leukemia; B16 and B16F10 melanomas were used for routine screening of compounds. The cells were maintained in Nunc/Corning 80 cm^2 plastic tissue culture flasks and cultured in cell culture medium (DMEM with 5 g/l glucose, 2 mM glutamine, 100 U/ml penicillin, 100 μg/ml streptomycin, 10% fetal calf serum and sodium bicarbonate).
The cell suspensions that were prepared and diluted according to the particular cell type and the expected target cell density (2.500-30.000 cells per well based on cell growth characteristics) were added by pipette (80 μl) into 96/well microtiter plates. Inoculates were allowed a pre-incubation period of 24 hours at 37° C. and 5% CO2 for stabilisation. Four-fold dilutions of the intended test concentration were added at time zero in 20 μl aliquots to the microtiter plate wells. Usually, test compound was evaluated at six 4-fold dilutions. In routine testing, the highest well concentration was 266.7 μM, but it can be the matter of change dependent on the agent. All drug concentrations were examined in duplicates. Incubations of cells with the test compounds lasted for 72 hours at 37° C., in 5% CO2 atmosphere and 100% humidity. At the end of incubation period, the cells were assayed by using the MTT. Ten microliters of the MTT stock solution were pipetted into each well and incubated further for 1-4 hours. After this incubation period, formazan was solubilized by addition of 100 μl/well of 10% SDS in water (pH=5.5) followed by further incubation at 37° C. overnight. The optical density (OD) was measured at 540 nm with the Labsystem iEMS Reader MF (UK). The tumour cell survival (TCS) was calculated using the following equation: TCS=(ODdrug exposed well/mean ODcontrol wells)×100%. The IC50 value, the drug concentration lethal to 50% of the tumour cells, was calculated from the obtained dose response curves (FIG. 2).

K-562 = test: In vitro cytotoxic activity, MTT assay, K-562; type: cell-based; conditions: Homo sapiens, K562, 72 hours
p34^cdc2/cyclin B (CDC2) = molecular target: T1, p34^cdc2/cyclin B (CDC2) (Homo sapiens, UniProt P06493); test: CDK inhibition assay, p34cdc2/cyclin B kinase, histone H1 phosphorylation; type: biochemical
T1 construct: made in house; host or cells: Sf9 insect cells (baculovirus co-infection)
Method: (§1) Cyclin-dependent kinases (p34^cdc2, p33^cdk2) and cyclins (cyclin B, E) are produced in Sf9 insect cells coinfected with appropriate baculoviral constructs. The cells are harvested 68-72 hrs post infection in lysis buffer for 30 min on ice and the soluble fraction is recovered by centrifugation at 14.000 g for 10 min. The protein extract is stored at −80° C.
(§2) Lysis buffer: 50 mM Tris pH 7.4, 150 mM NaCl, 5 mM EDTA, 20 mM NaF, 1% Tween, 1 mM DTT, 0.1 mM PMSF, leupeptine, aprotonine.
(§3) To carry out experiments on kinetics under linear conditions, the final point test system for kinase activity measurement is used. The kinase is added to reaction mixture in such a way as to obtain linear activity with respect to the concentration of enzyme and with respect to time.
(§4) The p34^cdc2 and p33^cdk2 kinase inhibition determination involves the use of 1 mg/ml histone H1 (Sigma, type III-S) in the presence of 15 μM [γ-^32P]ATP ([…]) (Amersham) in a final volume of 20 μl. Kinase activity is determined at 30° C. in the kinase buffer.
(§5) Tested compounds are usually dissolved to 100 mM solutions in DMSO, final concentration of DMSO in reaction mixture never exceeds 1%. The controls contain suitable dilutions of DMSO.
(§6) After 10 min, addition 3×SDS sample buffer stops the incubations. Phosphorylated proteins are separated electrophoretically using 12.5% SDS polyacrylamide gel. The measurement of kinase activity is done using digital image analysis.
(§7) The kinase activity is expressed as a percentage of maximum activity, the apparent inhibition constants are determined by graphic analysis (FIG. 1).
(§8) Kinase buffer: 50 mM Hepes pH 7.4, 10 mM MgCl2, 5 mM EGTA, 10 mM 2-glycerolphosphate, 1 mM NaF, 1 mM DTT

IκB-α kinase = IκB-α kinase inhibitory activity, in vitro kinase assay; type: biochemical
β-adrenergic receptors = test: Modulation of the activity of β-adrenergic receptors, isoproterenol-induced cAMP synthesis in C6 glioma; type: cell-based; conditions: cAMP synthesis induced by 5 μM (−) isoproterenol, rat C6 glioma; for Effect: result in words; for IC50: read-out: I50
Method: Rat C6 glioma (ATCC N^o CCL107) was cultivated in monolayer in serum-free chemically defined medium containing Ham's F10/minimal essential medium (1:1 vol/vol), 2 mM L-glutamine, 1% (vol/vol) minimal essential medium vitamins (100×), 1% (vol/vol) minimal essential medium nonessential amino acids (100×), 100 U/ml penicillin, 100 μg/ml streptomycin and 30 nM sodium selenite. Incubation was at 37° C. in a humidified atmosphere. Assays were performed in the logarithmic growth phase at a density of 2.5×10^5 cells/cm^2. Intracellular cAMP synthesis was induced by addition of 5 μM (−) isoproterenol. After 30 min incubation at 37° C. the medium was removed and the cellular amount of cAMP determined using the cAMP-enzyme immunoassay kit of Amersham. The I50 is determined from a dose-response curve in duplicate (Table 7). The effect of seven 8-azapurine-analogs was measured after simultaneous addition with isoproterenol.
As P2Y1-like and A2 purinergic receptors, negatively and positively coupled to adenylate cyclase respectively, are present on rat C6 glioma it has to be determined if the modulation of the synthesis of cAMP is due to inhibition of the activation of β-adrenergic receptors by isoproterenol are due to activation of purinergic receptors.

p33^cdk2 (cyclin E) = molecular target: T2, p33^cdk2 (cyclin E) (Homo sapiens, UniProt P24941); test: CDK inhibition assay, p33cdk2 kinase, histone H1 phosphorylation; type: biochemical
T2 construct: made in house; host or cells: Sf9 insect cells (baculovirus co-infection)
Method: as §1, §2, §3, §4, §5, §6, §7, §8

CDK9 - cyclin T1 = CDK9 - cyclin T1 (Homo sapiens, UniProt P50750); test: CDK inhibitory activity, CDK9 - cyclin T1; type: biochemical
Sequence of CDK9 - cyclin T1 (P50750 whole entry): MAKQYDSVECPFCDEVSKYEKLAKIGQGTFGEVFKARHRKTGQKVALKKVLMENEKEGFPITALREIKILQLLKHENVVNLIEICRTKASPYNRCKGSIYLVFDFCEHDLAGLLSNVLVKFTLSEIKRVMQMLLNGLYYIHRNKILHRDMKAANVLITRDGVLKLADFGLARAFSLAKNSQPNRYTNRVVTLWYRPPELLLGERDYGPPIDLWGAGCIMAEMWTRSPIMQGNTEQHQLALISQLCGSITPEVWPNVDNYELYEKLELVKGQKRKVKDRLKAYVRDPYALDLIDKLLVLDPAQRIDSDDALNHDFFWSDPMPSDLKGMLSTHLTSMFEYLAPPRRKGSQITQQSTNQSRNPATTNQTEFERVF
Sequence of CDK9 - cyclin T1 (O60563 whole entry partner): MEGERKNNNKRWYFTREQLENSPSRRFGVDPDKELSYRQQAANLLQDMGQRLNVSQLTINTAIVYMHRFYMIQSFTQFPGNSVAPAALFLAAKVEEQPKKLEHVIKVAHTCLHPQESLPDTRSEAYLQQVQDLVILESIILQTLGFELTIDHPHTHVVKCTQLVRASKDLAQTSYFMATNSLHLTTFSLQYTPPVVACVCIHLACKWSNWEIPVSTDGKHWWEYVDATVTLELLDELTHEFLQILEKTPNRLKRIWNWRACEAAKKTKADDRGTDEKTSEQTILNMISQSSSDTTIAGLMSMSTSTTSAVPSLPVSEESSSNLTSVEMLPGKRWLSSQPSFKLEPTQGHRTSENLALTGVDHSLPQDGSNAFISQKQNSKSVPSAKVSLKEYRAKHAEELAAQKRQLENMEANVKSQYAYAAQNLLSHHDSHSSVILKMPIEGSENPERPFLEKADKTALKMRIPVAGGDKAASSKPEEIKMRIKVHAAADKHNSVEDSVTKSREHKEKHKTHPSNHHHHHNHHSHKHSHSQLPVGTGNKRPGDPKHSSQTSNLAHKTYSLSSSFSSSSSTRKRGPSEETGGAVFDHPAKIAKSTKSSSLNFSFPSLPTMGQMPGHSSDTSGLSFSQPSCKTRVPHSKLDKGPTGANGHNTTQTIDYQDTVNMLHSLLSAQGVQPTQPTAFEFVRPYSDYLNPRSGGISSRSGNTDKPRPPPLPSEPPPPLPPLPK

T1 sequence (P06493 whole entry, species assumed): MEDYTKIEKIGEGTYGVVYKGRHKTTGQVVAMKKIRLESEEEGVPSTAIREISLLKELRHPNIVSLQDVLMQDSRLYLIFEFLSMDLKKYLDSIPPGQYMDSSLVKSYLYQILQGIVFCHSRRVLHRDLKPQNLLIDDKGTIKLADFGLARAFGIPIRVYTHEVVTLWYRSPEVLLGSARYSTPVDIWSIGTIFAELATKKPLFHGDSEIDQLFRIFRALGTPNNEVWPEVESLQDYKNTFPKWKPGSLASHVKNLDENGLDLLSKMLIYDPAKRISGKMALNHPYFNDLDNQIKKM
T1 sequence (P14635 whole entry partner, species assumed): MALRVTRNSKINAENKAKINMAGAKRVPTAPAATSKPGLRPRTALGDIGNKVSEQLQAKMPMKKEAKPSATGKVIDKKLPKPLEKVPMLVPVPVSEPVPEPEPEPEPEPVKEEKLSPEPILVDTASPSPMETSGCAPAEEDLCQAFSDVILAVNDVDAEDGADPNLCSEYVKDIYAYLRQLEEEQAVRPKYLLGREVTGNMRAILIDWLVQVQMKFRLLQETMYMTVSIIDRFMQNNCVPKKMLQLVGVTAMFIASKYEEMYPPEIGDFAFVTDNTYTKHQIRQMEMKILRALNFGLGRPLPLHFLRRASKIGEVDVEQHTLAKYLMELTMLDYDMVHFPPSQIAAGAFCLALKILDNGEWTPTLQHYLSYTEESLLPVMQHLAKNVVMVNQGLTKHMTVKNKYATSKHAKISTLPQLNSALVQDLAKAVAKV

IC50 (p34^cdc2/cyclin B (CDC2))	IC50 (IκB-α kinase)	Effect (β-adrenergic receptors)	IC50 (β-adrenergic receptors)	IC50 (p33^cdk2 (cyclin E))	IC50 (CDK9 - cyclin T1)	SMILES	IC50 (MCF7)	IC50 (K-562)
24 µM	–	–	–	–	–	CC(C)[C@H](CO)Nc1nc(Nc2ccc(Cl)c(N)c2)c2nnn(C(C)C)c2n1	16.4 µM	18.8 µM
34 µM	> 100 µM	–	–	–	–	CC(C)[C@H](CO)Nc1nc(Nc2ccc(O)c(C(=O)O)c2)c2nnn(C(C)C)c2n1	24 µM	28 µM
40 µM	–	–	–	–	–	CC(C)[C@H](CO)Nc1nc(Nc2ccccc2)c2nnn(C(C)C)c2n1	80 µM	100 µM
20 µM	> 100 µM	–	–	–	–	CC(=O)Oc1cccc(CNc2nc(N[C@@H](CO)C(C)C)nc3c2nnn3C(C)C)c1	28.2 µM	31.7 µM
30 µM	80 µM	–	–	–	–	CC(C)[C@H](CO)Nc1nc(Nc2ccc(Cl)c(C(=O)O)c2)c2nnn(C(C)C)c2n1	21 µM	42 µM
35 µM	> 100 µM	–	–	–	–	CC(C)n1nnc2c(Nc3cccc(Cl)c3)nc(N(CCO)CCO)nc21	100 µM	> 100 µM
–	–	inhibition	12 ± 1 µM	–	–	CCCCCCNc1nc(NC(CO)c2ccccc2)c2nnn(C(C)C)c2n1 (racemic)	–	–
–	–	inhibition	32 ± 2 µM	–	–	CC(C)C(CO)Nc1nc(NCc2ccccc2)c2nnn(C(C)C)c2n1 (stereo not drawn)	–	–
20 µM	80 µM	–	–	–	–	CC(C)[C@H](CO)Nc1nc(Nc2cccc(Cl)c2)c2nnn(C(C)C)c2n1	80 µM	96 µM
–	–	–	–	3.1 µM	1.1 µM	CC(C)n1nnc2c(Nc3cccc(Cl)c3)nc(NC3CCC(N)CC3)nc21 (stereo not drawn)	–	–
10 µM	85 µM	–	–	–	–	CC(=O)Oc1ccccc1CNc1nc(N[C@@H](CO)C(C)C)nc2c1nnn2C(C)C	24.1 µM	24 µM
–	–	–	–	7 µM	1.7 µM	COc1ccc(CNc2nc(NC3CCCCC3N)nc3c2nnn3C(C)C)cc1O (stereo not drawn)	–	–
–	–	–	–	> 10 µM	1.4 µM	CC(C)n1nnc2c(NCc3ccc(O)cc3)nc(NC3CCC(N)CC3)nc21 (stereo not drawn)	–	–
35 µM	> 100 µM	–	–	–	–	CC(C)[C@H](CO)Nc1nc(Nc2ccc(Br)cc2)c2nnn(C(C)C)c2n1	64 µM	75 µM
> 100 µM	> 100 µM	–	–	–	–	CC(C)n1nnc2c(Nc3cccc(Cl)c3)nc(NCCN)nc21	100 µM	> 100 µM
–	–	–	–	> 10 µM	1.7 µM	CC(C)n1nnc2c(NCc3cccc(O)c3)nc(NC3CCC(N)CC3)nc21 (stereo not drawn)	–	–
40 µM	> 100 µM	–	–	–	–	CC(C)[C@H](CO)Nc1nc(Nc2ccc(N)c(Cl)c2)c2nnn(C(C)C)c2n1	22.5 µM	28.9 µM
35 µM	90 µM	–	–	–	–	CC(C)[C@H](CO)Nc1nc(Nc2ccc(Cl)cc2)c2nnn(C(C)C)c2n1	17.6 µM	19.4 µM
–	–	–	–	6.4 µM	2 µM	CC[C@H](CO)Nc1nc(NCc2ccc(OC)c(O)c2)c2nnn(C(C)C)c2n1	–	–
